Some test systems named below: M14; NCI-H460; OVCAR-8; HT-29; NCI-H23; SN12C; ACHN; UACC-257; COLO 205; OVCAR-3; MOLT-4; SNB-19; RXF 393; UACC-62; A498; HCT-116; MDA-MB-435; PC-3; MCF7.
Holding throughout (experiment): NCI tumour cell line growth inhibition, 48 h

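Compound exposure: 48 hours, 5 concentrations, 96-well plates. GI50 = concentration required for 50% inhibition of growth.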 Activity calls are given as the source filed them. No stated cut-off is given here; in the data, active = GI50 up to about 1.1 µM and inactive = higher. Bounds are passed on as bounds.

In the case of `O=C1CCC(c2nc3ccccc3o2)C(=O)N1` (stereo not drawn), the GI50 with M14, in the experiment on NCI-H460, in the experiment on OVCAR-8, with HT-29, in the experiment with NCI-H23 and in the experiment with SN12C was > 100 µM (inactive) each time. Also, the GI50 in the experiment with ACHN, in the experiment with UACC-257, in the experiment on COLO 205, in the experiment with OVCAR-3, with MOLT-4 and with SNB-19 was > 100 µM (inactive) in each case. In addition, the GI50 with RXF 393, with UACC-62, with A498 and in the experiment with HCT-116 was > 100 µM (inactive) each time.

Take `COc1ccc(C(=O)C=C2NCCN2)cc1`: the GI50 in the experiment with M14, in the experiment with NCI-H460, with OVCAR-8, in the experiment with HT-29, in the experiment on NCI-H23 and in the experiment with SN12C was > 100 µM (inactive) each time. Further, the GI50 with ACHN, in the experiment with UACC-257, with COLO 205, in the experiment with OVCAR-3, in the experiment with MOLT-4 and with SNB-19 was > 100 µM (inactive) in each case. Further, the GI50 in the experiment with RXF 393, in the experiment on UACC-62, in the experiment on A498 and in the experiment with HCT-116 was > 100 µM (inactive) throughout.

Regarding `N#CC1(N2CCCC2)CCC2(CC1)OCCO2`, the GI50 in the experiment on M14, in the experiment with NCI-H460, with OVCAR-8, in the experiment with HT-29, in the experiment with NCI-H23 and in the experiment with SN12C was > 100 µM (inactive) in each case. Further, the GI50 with ACHN was > 100 µM (inactive); with UACC-257, > 100 µM (inactive); in the experiment on COLO 205, > 10 µM (inactive); with OVCAR-3, > 100 µM (inactive); with MOLT-4, > 100 µM (inactive); in the experiment with SNB-19, > 100 µM (inactive). The GI50 with RXF 393, in the experiment with UACC-62, with A498 and in the experiment on HCT-116 was > 100 µM (inactive) in each case.

For `O=C(O)CCNCCCCNCCC(=O)O`, the GI50 in the experiment on M14, in the experiment on NCI-H460, in the experiment with OVCAR-8, in the experiment with HT-29, with NCI-H23 and with SN12C was > 100 µM (inactive) throughout. The GI50 in the experiment on ACHN, in the experiment with COLO 205, in the experiment on OVCAR-3, in the experiment with MOLT-4, in the experiment with SNB-19 and in the experiment with RXF 393 was > 100 µM (inactive) throughout. Moreover, the GI50 with UACC-62, in the experiment with A498 and in the experiment with HCT-116 was > 100 µM (inactive) each time.

Regarding `COC1=CC(c2ccc(Br)[nH]2)=N/C1=C/NCC(C)C`, the GI50 in the experiment with M14 was 1.98 µM (inactive); with MDA-MB-435 it was 1.93 µM (inactive); in the experiment with NCI-H460, 1.62 µM (inactive); in the experiment on OVCAR-8 it was 2.01 µM (inactive); in the experiment with HT-29, 1.24 µM (inactive); in the experiment on NCI-H23 it was 1.58 µM (inactive). Besides, the GI50 in the experiment on SN12C is 2.21 µM (inactive); in the experiment with ACHN it was 1.21 µM (inactive); in the experiment with UACC-257, 2.07 µM (inactive); with COLO 205 it was 1.24 µM (inactive); in the experiment on PC-3 it was 1.47 µM (inactive); with OVCAR-3, 1.62 µM (inactive). The GI50 in the experiment on MOLT-4 was 1.33 µM (inactive); in the experiment on SNB-19, 3.6 µM (inactive); in the experiment on UACC-62, 1.98 µM (inactive); with A498 it was 2.23 µM (inactive); in the experiment with MCF7, 1.09 µM (active); with HCT-116, 1.44 µM (inactive).

On to `CC(=O)OCC1OC(OC2CC3C(C)(C)C(O)CC[C@]3(C)C3CCC45CC4(CC[C@H]5C(C)CC(O)C4OC4(C)C)[C@]23C)C(O)C(O)C1O` (stereo partly drawn), for which the GI50 in the experiment on M14 was 8.04 µM (inactive); in the experiment with NCI-H460, 8.91 µM (inactive); with OVCAR-8 it was 6.89 µM (inactive); in the experiment on HT-29 it was 8.38 µM (inactive); in the experiment on NCI-H23, 8.75 µM (inactive); in the experiment with SN12C, 8.24 µM (inactive). Moreover, the GI50 in the experiment with ACHN was 8.63 µM (inactive); in the experiment on UACC-257, 9.04 µM (inactive); in the experiment on COLO 205, 7.24 µM (inactive); in the experiment with OVCAR-3 it was 6.17 µM (inactive); in the experiment with MOLT-4, 0.701 µM (active); with SNB-19 it was 8 µM (inactive). Besides, the GI50 was 4.2 µM (inactive) with RXF 393, 7.45 µM (inactive) in the experiment with UACC-62, 34.5 µM (inactive) with A498 and 9.14 µM (inactive) with HCT-116.

Take `CCOC(=O)c1c(SCCN2CCOCC2)n(-c2ccccc2)c(=S)n(-c2ccccc2)c1=O`: the GI50 is 44.8 µM (inactive) in the experiment on M14; 47.2 µM (inactive) with MDA-MB-435; > 100 µM (inactive) in the experiment with NCI-H460; > 100 µM (inactive) in the experiment with OVCAR-8; 19.5 µM (inactive) in the experiment with HT-29; 32.4 µM (inactive) in the experiment on NCI-H23. Also, the GI50 in the experiment with SN12C was > 100 µM (inactive); in the experiment with ACHN, > 100 µM (inactive); with UACC-257, 25.8 µM (inactive); in the experiment on COLO 205 it was > 100 µM (inactive); in the experiment on OVCAR-3 it was 49.2 µM (inactive); in the experiment on MOLT-4, 26.7 µM (inactive). In addition, the GI50 in the experiment with SNB-19 was > 100 µM (inactive); with RXF 393, 18.6 µM (inactive); in the experiment on UACC-62, 49.8 µM (inactive); with MCF7, 21.2 µM (inactive).

As for `N#CC1(CCCCl)CCCCC1`, the GI50 in the experiment on M14, in the experiment with NCI-H460, with OVCAR-8, in the experiment on HT-29, in the experiment with NCI-H23 and with SN12C was > 100 µM (inactive) each time. Also, the GI50 in the experiment with ACHN, in the experiment with UACC-257, with COLO 205, in the experiment with OVCAR-3, with MOLT-4 and in the experiment on SNB-19 was > 100 µM (inactive) throughout. Further, the GI50 in the experiment on RXF 393, in the experiment on UACC-62, with A498 and in the experiment on HCT-116 was > 100 µM (inactive) throughout.

With `Clc1ccc(C2SCc3nc4ccccc4n32)c(Cl)c1` (stereo not drawn), the GI50 in the experiment on M14 is 14.4 µM (inactive); with NCI-H460, 16.6 µM (inactive); in the experiment with OVCAR-8, 16.9 µM (inactive); with HT-29 it was 16 µM (inactive); with NCI-H23 it was 11.3 µM (inactive); in the experiment on SN12C, 14.6 µM (inactive). Besides, the GI50 was 15 µM (inactive) in the experiment with ACHN; 9.79 µM (inactive) with UACC-257; 17 µM (inactive) with COLO 205; 14.1 µM (inactive) in the experiment with OVCAR-3; 14.1 µM (inactive) with MOLT-4; 18 µM (inactive) in the experiment with SNB-19. Further, the GI50 is 15.1 µM (inactive) in the experiment with RXF 393, 17.7 µM (inactive) in the experiment on UACC-62, 15 µM (inactive) with A498 and 14 µM (inactive) with HCT-116.

`N#C/C(=C\c1cc(O)ccc1O)C(N)=O`: the GI50 is 38.6 µM (inactive) in the experiment with M14; 40.7 µM (inactive) in the experiment on NCI-H460; 50.6 µM (inactive) in the experiment with OVCAR-8; 38.8 µM (inactive) in the experiment on HT-29; 36.2 µM (inactive) with NCI-H23; 50.4 µM (inactive) in the experiment with SN12C. Further, the GI50 in the experiment with ACHN was 26.8 µM (inactive); in the experiment on UACC-257, 28.4 µM (inactive); in the experiment with COLO 205 it was 33.3 µM (inactive); in the experiment with OVCAR-3 it was 38.6 µM (inactive); in the experiment on MOLT-4, 27 µM (inactive); in the experiment on SNB-19 it was 57.8 µM (inactive). The GI50 with RXF 393 is 19 µM (inactive); in the experiment on UACC-62 it was 30.4 µM (inactive); in the experiment on A498, 41 µM (inactive); with HCT-116, 63.2 µM (inactive).

Consider `CC(=O)OC1CC2C(C)(C)C(=O)C=C[C@]2(C)C2CCC3(C)C(=CCC3[C@H](CO)C[C@H](O)C(=O)C(C)(C)O)[C@]12C` (stereo partly drawn), for which the GI50 was 21.7 µM (inactive) in the experiment on M14; 16.6 µM (inactive) in the experiment with NCI-H460; 17.3 µM (inactive) in the experiment on OVCAR-8; 13.8 µM (inactive) in the experiment with HT-29; > 10 µM (inactive) in the experiment with NCI-H23; 26.4 µM (inactive) with SN12C. Also, the GI50 with ACHN is 17.3 µM (inactive); in the experiment on UACC-257, 14.5 µM (inactive); with COLO 205, 42.1 µM (inactive); in the experiment on OVCAR-3, 19.5 µM (inactive); with MOLT-4, 22.6 µM (inactive); in the experiment on SNB-19, 31.7 µM (inactive). For the same compound, the GI50 is 16.5 µM (inactive) in the experiment with RXF 393, 14.2 µM (inactive) with UACC-62, 16.4 µM (inactive) with A498 and 30.3 µM (inactive) with HCT-116.

On to `COC(=O)C1=C(C(=O)OC)C2(CCCCCC2=O)OC1=O` (stereo not drawn), for which the GI50 in the experiment with M14, in the experiment with NCI-H460, in the experiment on OVCAR-8, in the experiment on HT-29, with NCI-H23 and in the experiment on SN12C was > 100 µM (inactive) in each case. In addition, the GI50 in the experiment with ACHN, in the experiment with UACC-257, with COLO 205, with OVCAR-3, in the experiment on MOLT-4 and in the experiment on SNB-19 was > 100 µM (inactive) each time. Further, the GI50 in the experiment with RXF 393, with UACC-62, with A498 and in the experiment with HCT-116 was > 100 µM (inactive) throughout.
